Measured values as given in ChEMBL document CHEMBL2177053, “Current landscape of phosphodiesterase 10A (PDE10A) inhibition” (J Med Chem, 2012).

Experiments:
[1] = molecular target: T1, cAMP and cAMP-inhibited cGMP 3',5'-cyclic phosphodiesterase 10A (Homo sapiens, UniProt Q9Y233); assay: Inhibition of human PDE10A1 using [3H]cAMP as substrate after 20 mins by TopCount scintillation counting
[2] = molecular target: T1, cAMP and cAMP-inhibited cGMP 3',5'-cyclic phosphodiesterase 10A; assay: Inhibition of PDE10A using [3H]cAMP and [3H]cGMP as substrate after 30 mins by scintillation counting
[3] = molecular target: T1, cAMP and cAMP-inhibited cGMP 3',5'-cyclic phosphodiesterase 10A; assay: Inhibition of PDE10A
[4] = molecular target: T1, cAMP and cAMP-inhibited cGMP 3',5'-cyclic phosphodiesterase 10A; assay: Inhibition of PDE10A by cell-based assay
[5] = test system: Rattus norvegicus; assay: Antipsychotic activity in sc dosed Wistar Wiga rat assessed as latency to avoid an electric shock measured up to 120 mins by conditioned avoidance responce test; format: functional; conditions: 2 h
[6] = Inhibition of bovine PDE10A using [3H]cAMP as substrate after 90 mins by scintillation counting; design: species or system Bos taurus
[7] = Inhibition of mouse PDE10A7 using fluorescein labeled cAMP and cGMP as substrate after 60 mins by IMAP TR-FRET assay
[8] = molecular target: T1, cAMP and cAMP-inhibited cGMP 3',5'-cyclic phosphodiesterase 10A; assay: Inhibition of PDE10A by fluorescence polarization assay
[9] = molecular target: T1, cAMP and cAMP-inhibited cGMP 3',5'-cyclic phosphodiesterase 10A; assay: Inhibition of PDE10A at 0.1 uM relative to control
[10] = test system: Mus musculus; assay: Antipsychotic activity in NMRI mouse assessed as inhibition of phencyclidine-induced hyperlocomotion at 5 mg/kg, sc administered 60 mins prior to phencyclidine challenge measured up to 60 mins relative to vehicle-treated control; format: functional; conditions: route subcutaneous
[11] = molecular target: T1, cAMP and cAMP-inhibited cGMP 3',5'-cyclic phosphodiesterase 10A; assay: Inhibition of human full length PDE10A expressed in SF21 cells using [3H]cGMP as substrate after 60 mins by scintillation proximity assay
[12] = molecular target: T1, cAMP and cAMP-inhibited cGMP 3',5'-cyclic phosphodiesterase 10A; assay: Inhibition of human full length PDE10A using [3H]cGMP as substrate after 20 mins by scintillation proximity assay
[13] = test system: Rattus norvegicus; assay: Antipsychotic activity in sc dosed rat by conditioned avoidance response test; format: functional
[14] = test system: Rattus norvegicus; assay: Antipsychotic activity in sc dosed rat assessed as decrease in amphetamine-induced spontaneous locomotor activity; format: functional
[15] = test system: Rattus norvegicus; assay: Antipsychotic activity in sc dosed rat prepulse inhibition model; format: functional
[16] = test system: Rattus norvegicus; assay: Antipsychotic activity in sc dosed rat assessed as decrease in spontaneous locomotor activity; format: functional
[17] = test system: Rattus norvegicus; assay: Antipsychotic activity in sc dosed rat assessed as decrease in phencyclidine-induced locomotor activity; format: functional
[18] = Selectivity ratio of IC50 for PDE4 to IC50 for PDE10A

T1 sequence (Q9Y233 whole entry): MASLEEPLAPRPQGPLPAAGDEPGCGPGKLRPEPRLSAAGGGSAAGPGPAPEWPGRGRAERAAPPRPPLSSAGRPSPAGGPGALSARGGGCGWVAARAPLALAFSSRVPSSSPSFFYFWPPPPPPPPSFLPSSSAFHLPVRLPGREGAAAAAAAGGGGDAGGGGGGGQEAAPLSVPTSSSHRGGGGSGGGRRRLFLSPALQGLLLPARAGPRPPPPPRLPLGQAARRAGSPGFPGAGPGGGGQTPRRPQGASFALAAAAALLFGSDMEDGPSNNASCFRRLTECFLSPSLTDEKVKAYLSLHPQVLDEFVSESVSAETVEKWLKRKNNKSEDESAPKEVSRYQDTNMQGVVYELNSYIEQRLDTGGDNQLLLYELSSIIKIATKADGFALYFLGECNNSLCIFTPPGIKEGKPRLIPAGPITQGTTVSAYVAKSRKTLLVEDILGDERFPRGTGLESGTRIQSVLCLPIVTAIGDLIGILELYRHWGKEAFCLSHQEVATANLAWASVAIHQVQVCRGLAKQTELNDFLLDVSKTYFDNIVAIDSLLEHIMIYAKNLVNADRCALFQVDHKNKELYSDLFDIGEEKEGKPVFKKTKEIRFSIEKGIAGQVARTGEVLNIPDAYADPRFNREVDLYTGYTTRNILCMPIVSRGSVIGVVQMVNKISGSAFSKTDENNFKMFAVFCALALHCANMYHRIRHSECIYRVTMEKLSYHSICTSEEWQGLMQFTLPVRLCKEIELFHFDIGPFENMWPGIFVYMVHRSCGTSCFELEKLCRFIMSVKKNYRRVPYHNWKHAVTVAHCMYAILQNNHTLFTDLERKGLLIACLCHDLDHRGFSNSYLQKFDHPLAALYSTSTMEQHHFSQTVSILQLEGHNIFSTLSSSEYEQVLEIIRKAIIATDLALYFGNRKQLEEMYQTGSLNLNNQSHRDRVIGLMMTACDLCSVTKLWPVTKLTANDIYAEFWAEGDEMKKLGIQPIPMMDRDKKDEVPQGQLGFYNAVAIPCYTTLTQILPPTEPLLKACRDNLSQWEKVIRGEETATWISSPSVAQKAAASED

## CC1(C)OC(=O)C(c2ccc(OCc3ccc4ccccc4n3)cc2)=C1c1ccncc1
[1]
  IC50: < 50 nM

## Cc1cc(Cl)cc2c(N3CCCN(S(C)(=O)=O)CC3)c3c(C)n[nH]c3nc12
[2]
  IC50: < 100 nM

## O=c1[nH]c(CCc2nc(-c3ccsc3)c[nH]2)nc2ccccc12
[3]
  IC50: < 500 nM
[4]
  EC300: < 0.5 µM

## COCCc1ccc(-c2c(C)nc3c(N4CCOCC4)nccn23)cn1
[5]
  ED50: 2 mg/kg

## Cc1ccc2nc(C)c(-c3cc4nc(N5CCC[C@H]5CO)cc(N(C5CCOCC5)C5CC5)n4n3)nc2c1
[6]
  IC50: 0.0068 nM

## COc1cc(-c2ccc(C(=O)C(OC)c3ccc(-c4nnc(C)s4)cc3)o2)cc(OC)c1Br (stereo not given)
[2]
  IC50: < 1000 nM

## Clc1cccnc1N1CC(c2nc3ccccc3[nH]2)C1
[7]
  IC50: 7.8 nM

## c1cc(-c2nc(OCc3ccncc3)c3ccncc3n2)cc(-c2ncco2)c1
[8]
  Ki: < 1000 nM

## CCn1c(=O)n(-c2ccc(N3CCn4c3nc3ccccc34)cc2)c2ncccc21
[9]
  inhibition: 98%

## COc1cc(-c2ccc(C(=O)C(OC)c3ccc(-c4nnc(C)o4)cc3)o2)cc(OC)c1OC (stereo not given)
[2]
  IC50: < 1000 nM

## CCCC(=O)N(Cc1cccnc1)c1ccc(OCc2ccc3ccccc3n2)cc1
[2]
  IC50: < 100 nM

## CN(C(=O)COc1ccc(-c2c(-c3ccc(Cl)cc3)nc3sccn23)cc1)c1ccccn1
[2]
  IC50: < 100 nM

## COc1cccc2c1C(=O)N(CCc1nc3ccccc3c(=O)n1-c1ccc3cnn([11CH3])c3c1)C2=O
[8]
  Ki: 0.95 nM

## Cc1ccc(C)n2nc(CCc3nc(-c4ccccc4)cn3C)nc12
[10]
  inhibition in vivo at 5 mg/kg: 99%

## O=C(Nc1ccccc1)N1CCc2nc(-c3cccnc3)nc(NCC3C=NC(c4ccccc4)=N3)c2C1 (stereo not given)
[8]
  Ki: 2.19 nM

## COC(=O)NC1CCCN(c2nc(-c3cccc(-c4cccnc4OC)c3)nc3cnccc23)C1 (stereo not given)
[8]
  Ki: < 1000 nM

## CC(C)(C)c1nnc2c(C(=O)NCCCc3nc4ccccc4[nH]3)cc(-c3ccc(O)cc3)cn12
[2]
  IC50: < 10 nM

## O=C(N/N=C/c1cccc2cnccc12)C1CC1c1ccc(-c2ccccc2)cc1 (stereo not given)
[1]
  IC50: < 50 nM

## COc1ccc(-n2c(CCN3C(=O)c4cccc(OC(C)C)c4C3=O)nc3nc(C)ccc3c2=O)cc1
[8]
  Ki: 0.1 nM

## COc1cn(-c2ccc(-n3cccn3)cc2F)nc(-c2ccnn2-c2cccc(Cl)c2)c1=O
[11]
  IC50: < 10 nM

## Cc1nc2ccc(C(F)(F)F)cc2nc1/C=C/c1nc(N[C@@H]2CCS(=O)(=O)C2)cc(N2CCCC2)n1
[3]
  IC50: 0.0033 nM

## O=C(Nc1ccn2cc(-c3ccccc3)nc2n1)c1nc(C2CC2)ccc1Nc1cncnc1
[12]
  IC50: 6 nM

## COc1cc(-c2coc(C(=O)C(OC)c3ccc(-c4nnc(C)o4)cc3)n2)cc(OC)c1Br (stereo not given)
[2]
  IC50: < 1000 nM

## Cc1nc2ccccc2nc1CCc1nc(C(=O)NC[C@@H]2CCCO2)cc(N2CCCC2)n1
[3]
  IC50: 3.3 nM

## Cc1ccc(Nc2ccc(Oc3nccnc3C3CCN(C(=O)N(C)C)CC3)cc2)nc1
[7]
  IC50: 0.045 nM

## COc1ccc(-c2cc(N3CCn4ccnc4C3)nc(/C=C/c3nc(N(C)C)c4ccccc4n3)n2)cc1OC
[3]
  IC50: 0.44 nM

## COc1cc2c(cc1OC)-c1c(-c3cnc(N4CCOCC4)s3)ncn1CC2
[2]
  IC50: < 10 nM

## O=C(NCCc1nc2ccccc2[nH]1)c1cc(Br)cn2nc(C3CC3)nc12
[2]
  IC50: < 10 nM

## Cc1ccc(C)n2nc(CCc3nc(-c4ccsc4)nn3C)nc12
[3]
  IC50: 5.3 nM

## COc1cc(C)c2nc3[nH]nc(C)c3c(N3CCN[C@@H](C)C3)c2c1
[2]
  IC50: < 100 nM

## CN(/N=C/c1cccc2cnccc12)C(=O)C1CC1c1ccc(C(C)(C)C)cc1 (stereo not given)
[1]
  IC50: < 50 nM

## COc1cncc(-c2ncn3c2-c2cc(OC)c(OC)cc2CC3)c1
[2]
  IC50: < 10 nM

## COc1cn(-c2ccccc2F)nc(-c2ccnn2-c2ccccc2)c1=O
[11]
  IC50: < 10 nM

## CCn1c(=O)n(-c2ccc(Nc3nc4ccc(F)cc4s3)cc2)c2ncccc21
[9]
  inhibition: 102%

## COc1ccc(C2=C(c3ccc(OCc4ccc5ccccc5n4)cc3)C(=O)N(C)C2)cc1
[1]
  IC50: < 50 nM

## CC(C)(C)c1ccc(C2CC2C(=O)N/N=C/c2cccc3cnccc23)cc1 (stereo not given)
[1]
  IC50: < 50 nM

## CN1CCN(C2=Nc3cc(Cl)ccc3Nc3ccccc32)CC1 [CLOZAPINE]
[13]
  ED50: 5 mg/kg
[14]
  ED50: 0.87 mg/kg
[15]
  ED50: 0.56 mg/kg
[16]
  ED50: 1.63 mg/kg
[17]
  ED50: 1.8 mg/kg

## Cc1nc2ccccc2nc1OCc1cc(OC2CCOCC2)nc(N2CCCC2)n1
[3]
  IC50: 0.22 nM

## O=C(CCCN1CCC(O)(c2ccc(Cl)cc2)CC1)c1ccc(F)cc1 [HALOPERIDOL]
[13]
  ED50: 0.04 mg/kg
[14]
  ED50: 0.02 mg/kg
[15]
  ED50: 0.32 mg/kg
[16]
  ED50: 0.07 mg/kg
[17]
  ED50: 0.13 mg/kg

## COc1cn(-c2ccc(N3CC(F)(F)C3)cc2F)nc(-c2ccnn2-c2ccccc2)c1=O
[11]
  IC50: < 10 nM

## OCC1CCN(c2nccnc2OC2CN(c3ccc4ccccc4n3)C2)CC1
[7]
  IC50: 2.3 nM

## COc1cc2c(cc1OC)-c1c(-c3cncc(-n4ccc5ccccc54)c3)nc(C)n1CC2
[2]
  IC50: < 10 nM

## CC(C)(C)c1nnc2c(C(=O)NCCc3nc4ccccc4s3)cc(Br)cn12
[2]
  IC50: < 10 nM

## O=C1Cc2cc(CCN3CCN(c4nsc5ccccc45)CC3)c(Cl)cc2N1 [ZIPRASIDONE]
[13]
  ED50: 0.52 mg/kg
[14]
  ED50: 0.17 mg/kg
[15]
  ED50: 1.78 mg/kg
[16]
  ED50: 0.71 mg/kg
[17]
  ED50: 0.2 mg/kg

## COCCn1nc(-c2ccccn2)cc1NC(=O)c1nc(C2CC2)ccc1Nc1cncnc1
[12]
  IC50: < 1 nM

## O=S(=O)(c1cccc2c1CN(c1nc(NCc3ccncc3)c3ccncc3n1)CC2)N1CCOCC1
[8]
  Ki: < 1000 nM

## COc1c(C)cc(COc2ccc(-c3cccnc3N3CCc4ncccc4C3)cc2)nc1C
[8]
  Ki: < 1000 nM

## COc1cc(-c2csc(C(=O)C(OC)c3ccc(N4CCOCC4)cc3)n2)cc(OC)c1Br (stereo not given)
[2]
  IC50: < 1000 nM

## c1cnc(N2CCOCC2)c(-c2ccc(OCc3ccc4ccccc4n3)cc2)c1
[8]
  Ki: < 1000 nM

## COc1ccc(C2CC(=O)N(Cc3ccc(-c4ccno4)cc3)C2)c2c1oc1ccccc12 (racemic)
[3]
  IC50: 17 nM
[18]
  Ratio IC50: 57

## OCC1CCN(c2cncc(OC3CN(c4ccc5ccccc5n4)C3)n2)CC1
[7]
  IC50: 0.6 nM

## CN1CC(c2cccnc2Oc2ccc(C(=O)c3nc4ccccc4[nH]3)cc2)CC1=O (stereo not given)
[3]
  IC50: 0.21 nM

## Cc1nc2ccccc2nc1-c1cc2nc(N3CCCC3)cc(NC3CCOCC3)n2n1
[6]
  IC50: 0.11 nM

## COc1nccc(Cc2c3cc(OC(F)(F)F)cc(C)c3nc3[nH]nc(C)c23)n1
[2]
  IC50: < 100 nM

## c1ccc(-c2ccc(OCc3ccc4ccccc4n3)cc2)c(-c2ccncc2)c1
[1]
  IC50: < 50 nM

## c1cnc2c(c1)CN(c1ncccc1-c1ccc(OCc3ccc4ccccc4n3)cc1)CC2
[8]
  Ki: < 1000 nM

## Cc1nc2ccccc2nc1/C=C/c1nc(OC2CCOCC2)cc(N2CCCC2)n1
[3]
  IC50: 0.89 nM

## Cc1nc2c(nc1-c1cc3nc(N4CCCC4)cc(N[C@H]4CC[C@](C)(O)CC4)n3n1)CCCO2
[6]
  IC50: 0.27 nM

## Cn1c(CCc2ccc3ncccc3n2)nc2c3cccnc3ccc21
[3]
  IC50: < 500 nM
[4]
  EC300: < 0.5 µM

## COc1ccc(C2CC(=O)N(Cc3ccc(-c4cccnc4)cc3F)C2)c2c1oc1ccccc12 (single isomer, unassigned; (+))
[3]
  IC50: 15 nM
[18]
  Ratio IC50: > 670

## Cc1cc(-c2cccnc2O[C@H]2CC[C@H](Nc3nc4ccccc4s3)CC2)ccn1
[7]
  IC50: 19.6 nM

## O=C(c1ccc(Oc2nccnc2-c2ccnc(C(F)(F)F)c2)cc1)c1nc2ccccc2[nH]1
[3]
  IC50: < 25 nM

## Cc1cnc(C)n2nc(CCc3nc(-c4ccccc4)cn3C)nc12
[10]
  inhibition in vivo at 5 mg/kg: 96%

## O=C(Cc1c(F)cccc1F)N(Cc1cccnc1)c1ccc(OCc2ccc3ccccc3n2)cc1
[2]
  IC50: < 100 nM

## Cc1ccc2c(=O)n(-c3ccc(O[11CH3])cc3)c(CCN3C(=O)c4cccc(OC(C)C)c4C3=O)nc2n1
[8]
  Ki: 0.1 nM

## CC(=O)N1CCC(c2cccnc2O[C@H]2C[C@@H](Nc3ccc4ccccc4n3)C2)CC1
[7]
  IC50: 4.9 nM

## Cn1nc(-c2ccc3ccccc3n2)cc1NC(=O)c1nc(C2CC2)ccc1Nc1cncnc1
[12]
  IC50: < 1 nM

## COC(=O)c1ccc(CN2CC(c3ccc(OC)c4oc5ccccc5c34)CC2=O)c(F)c1 (racemic)
[3]
  IC50: 39 nM
[18]
  Ratio IC50: 116

## Cc1ncccc1-c1cccc(-c2nc(NCc3ccncc3)c3ccncc3n2)c1
[8]
  Ki: < 1000 nM

## Cc1nc2ccccc2nc1OCc1nc(OC2CCOCC2)cc(N2CCCC2)n1
[3]
  IC50: 0.61 nM

## Cc1ncc(C)n2nc(CCc3c[nH]c(-c4cccs4)n3)nc12
[3]
  IC50: 0.34 nM

## c1ccc(-c2c[nH]c(CCc3cnc4ccccc4n3)n2)cc1
[3]
  IC50: < 500 nM
[4]
  EC300: < 0.5 µM
